Measurements published in ChEMBL document CHEMBL1201862, “PubChem BioAssay data set” (2004).
“And” between values parts separate entries of the source, which are not always exact repeats. Equal entries are not always repeated.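 Grown in 96-well plates, cells were treated for 48 hours with each compound at five concentrations. Insufficient inhibition: endpoint recorded as highest concentration tested. Here, GI50 denotes the concentration required for 50% inhibition of growth.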 The source made the active and inactive calls. No stated cut-off is given here; in the data, active = GI50 up to about 1.1 µM and inactive = higher.

Assays:
Assay in all cases: growth of human tumour cells (NCI), 48 h
786-0 = system: 786-0
A549 = system: A549
ACHN = system: ACHN
BT-549 = system: BT-549
CAKI-1 = system: CAKI-1
CCRF-CEM = system: CCRF-CEM
COLO 205 = system: COLO 205
DU-145 = system: DU-145
EKVX = system: EKVX
HCC 2998 = system: HCC 2998
HCT-116 = system: HCT-116
HCT-15 = system: HCT-15
HL-60 = system: HL-60
HOP-62 = system: HOP-62
HT-29 = system: HT-29
Hs-578T = system: Hs-578T
IGROV-1 = system: IGROV-1
K562 = system: K562
KM12 = system: KM12
M14 = system: M14
MCF7 = system: MCF7
MDA-MB-231 = system: MDA-MB-231
MDA-MB-435 = system: MDA-MB-435
MDA-N = system: MDA-N
MOLT-4 = system: MOLT-4
Malme-3M = system: Malme-3M
NCI-H226 = system: NCI-H226
NCI-H23 = system: NCI-H23
NCI-H460 = system: NCI-H460
NCI-H522 = system: NCI-H522
NCI/ADR-RES = system: NCI/ADR-RES
OVCAR-3 = system: OVCAR-3
OVCAR-4 = system: OVCAR-4
OVCAR-5 = system: OVCAR-5
OVCAR-8 = system: OVCAR-8
PC-3 = system: PC-3
RPMI-8226 = system: RPMI-8226
RXF 393 = system: RXF 393
SF-268 = system: SF-268
SF-295 = system: SF-295
SK-MEL-28 = system: SK-MEL-28
SK-MEL-2 = system: SK-MEL-2
SK-MEL-5 = system: SK-MEL-5
SK-OV-3 = system: SK-OV-3
SN12C = system: SN12C
SNB-19 = system: SNB-19
SNB-75 = system: SNB-75
SW-620 = system: SW-620
T47D = system: T47D
TK-10 = system: TK-10
U-251 = system: U-251
UACC-257 = system: UACC-257
UACC-62 = system: UACC-62
UO-31 = system: UO-31
A498 = system: A498
SF-539 = system: SF-539
HOP-92 = system: HOP-92
LOX IMVI = system: LOX IMVI
SR = system: SR

Measured: GI50

Cc1ccc(-n2nnc(C#N)c2O)cc1
inactive: 786-0 > 100 µM | A549 > 100 µM | ACHN > 100 µM | BT-549 > 100 µM | CAKI-1 93.3 µM | CCRF-CEM > 100 µM | COLO 205 > 100 µM | DU-145 > 100 µM | EKVX > 100 µM | HCC 2998 > 100 µM | HCT-116 > 100 µM | HL-60 > 100 µM | HOP-62 > 100 µM | HT-29 > 100 µM | Hs-578T > 100 µM | IGROV-1 > 100 µM | K562 > 100 µM | KM12 > 100 µM | M14 > 100 µM | MCF7 > 100 µM | MDA-MB-231 > 100 µM | MDA-MB-435 > 100 µM | MDA-N > 100 µM | MOLT-4 > 100 µM | Malme-3M > 100 µM | NCI-H226 > 100 µM | NCI-H23 > 100 µM | NCI-H460 > 100 µM | NCI-H522 > 100 µM | NCI/ADR-RES > 100 µM | OVCAR-3 > 100 µM | OVCAR-4 > 100 µM | OVCAR-5 > 100 µM | OVCAR-8 > 100 µM | PC-3 > 100 µM | RPMI-8226 > 100 µM | RXF 393 > 100 µM | SF-268 > 100 µM | SF-295 > 100 µM | SK-MEL-28 > 100 µM | SK-MEL-2 > 100 µM | SK-MEL-5 > 100 µM | SK-OV-3 > 100 µM | SN12C > 100 µM | SNB-19 > 100 µM | SNB-75 > 100 µM | SW-620 > 100 µM | T47D > 100 µM | TK-10 > 100 µM | U-251 > 100 µM | UACC-257 > 100 µM | UACC-62 > 100 µM | UO-31 > 100 µM
> 100 µM: HCT-15

Cc1[nH]c2ncn3nc(C(Cl)(Cl)Cl)nc3c2c1Cc1ccccc1
> 100 µM: HCT-15
inactive: 786-0 > 100 µM | A498 > 100 µM | A549 > 100 µM | ACHN > 100 µM | BT-549 > 100 µM | CAKI-1 > 100 µM | CCRF-CEM > 100 µM | COLO 205 > 100 µM | DU-145 > 100 µM | EKVX > 100 µM | HCC 2998 > 100 µM | HCT-116 > 100 µM | HL-60 > 100 µM | HOP-62 > 100 µM | HT-29 > 100 µM | Hs-578T > 100 µM | IGROV-1 > 100 µM | KM12 > 100 µM | M14 > 100 µM | MCF7 > 100 µM | MDA-MB-231 > 100 µM | MDA-MB-435 > 100 µM | MDA-N > 100 µM | MOLT-4 > 100 µM | Malme-3M > 100 µM | NCI-H226 > 100 µM | NCI-H23 > 100 µM | NCI-H460 > 100 µM | NCI-H522 > 100 µM | NCI/ADR-RES > 100 µM | OVCAR-3 > 100 µM | OVCAR-4 > 100 µM | OVCAR-5 > 100 µM | OVCAR-8 > 100 µM | PC-3 > 100 µM | RPMI-8226 > 100 µM | RXF 393 > 100 µM | SF-268 > 100 µM | SF-295 > 100 µM | SF-539 > 100 µM | SK-MEL-28 > 100 µM | SK-MEL-2 > 100 µM | SK-MEL-5 > 100 µM | SK-OV-3 > 100 µM | SN12C > 100 µM | SNB-19 > 100 µM | SNB-75 > 100 µM | SW-620 > 100 µM | T47D > 100 µM | TK-10 > 100 µM | U-251 > 100 µM | UACC-257 > 100 µM | UACC-62 > 100 µM | UO-31 10.5 µM

CSC(SC)=C(C#N)C(=O)Nc1ccc(C)cc1
> 100 µM: HCT-15
inactive: 786-0 > 100 µM | A549 > 100 µM | ACHN > 100 µM | BT-549 > 100 µM | CAKI-1 42.8 µM | CCRF-CEM 34.6 µM | COLO 205 > 100 µM | DU-145 > 100 µM | EKVX > 100 µM | HCC 2998 > 100 µM | HCT-116 49.5 µM | HL-60 37.2 µM | HOP-62 > 100 µM | HOP-92 15.5 µM | HT-29 > 100 µM | Hs-578T > 100 µM | IGROV-1 61.4 µM | K562 75.3 µM | KM12 > 100 µM | LOX IMVI > 100 µM | M14 > 100 µM | MCF7 71.9 µM | MDA-MB-231 > 100 µM | MDA-MB-435 > 100 µM | MDA-N > 100 µM | MOLT-4 95.5 µM | Malme-3M > 100 µM | NCI-H226 > 100 µM | NCI-H23 > 100 µM | NCI-H460 > 100 µM | NCI-H522 28.9 µM | OVCAR-3 > 100 µM | OVCAR-4 > 100 µM | OVCAR-5 > 100 µM | PC-3 > 100 µM | RPMI-8226 42.2 µM | RXF 393 > 100 µM | SF-268 > 100 µM | SF-295 > 100 µM | SF-539 > 100 µM | SK-MEL-28 > 100 µM | SK-MEL-2 > 100 µM | SK-MEL-5 > 100 µM | SK-OV-3 > 100 µM | SN12C > 100 µM | SNB-19 > 100 µM | SR 63 µM | SW-620 > 100 µM | T47D > 100 µM | TK-10 > 100 µM | U-251 > 100 µM | UACC-257 > 100 µM | UACC-62 94.4 µM | UO-31 61 µM

Cc1cc(-c2cc(C)c(O)c(C(C)(C)C)c2)cc(C(C)(C)C)c1O
inactive: 786-0 10.7 µM and 13.1 µM | A498 9.4 µM and 17.1 µM | A549 9.27 µM and 9.59 µM | ACHN 10.6 µM and 15.7 µM | BT-549 14.1 µM and 13.1 µM | CAKI-1 14.6 µM and 9.66 µM | CCRF-CEM 5.69 µM and 5.58 µM | COLO 205 11.1 µM and 13.6 µM | DU-145 15.2 µM and 11.8 µM | EKVX 14.8 µM and 10.8 µM | HCC 2998 4.54 µM and 4.59 µM | HCT-116 6.21 µM and 10.9 µM | HL-60 12 µM | HOP-62 17.8 µM and 17.3 µM | HT-29 3.24 µM and 3.82 µM | Hs-578T 12.8 µM and 15.3 µM | IGROV-1 20.8 µM and 12 µM | K562 9.25 µM and 7.69 µM | KM12 6.07 µM and 9.06 µM | LOX IMVI 10.1 µM and 11.5 µM | M14 10.6 µM and 12.8 µM | MCF7 5.02 µM and 6.62 µM | MDA-MB-231 9.55 µM and 12.9 µM | MDA-MB-435 11.5 µM and 14.8 µM | MDA-N 14.7 µM and 8.65 µM | MOLT-4 5.79 µM and 5.86 µM | Malme-3M 14.6 µM and 21.4 µM | NCI-H226 10.7 µM and 19.8 µM | NCI-H23 10.4 µM and 12.9 µM | NCI-H460 6.68 µM and 5.46 µM | NCI-H522 10.5 µM and 12.3 µM | NCI/ADR-RES 11 µM and 14 µM | OVCAR-3 12.2 µM and 14.1 µM | OVCAR-4 12.4 µM and 11.6 µM | OVCAR-5 14.5 µM and 11.9 µM | OVCAR-8 15.4 µM and 13.4 µM | RPMI-8226 18.9 µM and 12.9 µM | RXF 393 13.4 µM and 11 µM | SF-268 13.9 µM and 11.7 µM | SF-295 9.82 µM and 11.1 µM | SF-539 15 µM and 18.5 µM | SK-MEL-28 16.7 µM and 12 µM | SK-MEL-2 6.31 µM and 12.2 µM | SK-MEL-5 10.6 µM and 14.7 µM | SK-OV-3 16.7 µM and 14.2 µM | SN12C 13.4 µM and 12.3 µM | SNB-19 14.6 µM and 13.7 µM | SNB-75 14 µM and 12.6 µM | SR 4.09 µM | SW-620 16.4 µM and 11 µM | T47D 4.53 µM and 7 µM | TK-10 11.2 µM and 12.1 µM | U-251 13.6 µM and 10.6 µM | UACC-257 11.8 µM | UACC-62 13.3 µM and 13.6 µM | UO-31 11 µM and 18.1 µM
